Data published in publication PMC8913746, “An open-like conformation of the sigma-1 receptor reveals its ligand entry pathway” (Nature Communications, 2022).
Numbering of substitutions follows the chain as printed. pKd: −log10 of the molar value. Where “and” joins values, the source holds several entries; their conditions need not be identical. Equal values may be shown once.

Experiments:
[1] = target: T1, xlσ1R-C203 (Xenopus laevis, UniProt Q6DCU6, Y203C); assay: ITC binding of PRE084 to xlσ1R-C203 before/after mPEG-Mal-5K modification
T1 construct: The gene encoding the full-length wild-type σ1R from Xenopus laevis; hemagglutinin signal peptide (N); decahistidine (His10) (N); TEV protease recognition site (N); made in house; host or cells: Pichia pastoris GS115
T1 sequence (Q6DCU6 1-221 Y203C): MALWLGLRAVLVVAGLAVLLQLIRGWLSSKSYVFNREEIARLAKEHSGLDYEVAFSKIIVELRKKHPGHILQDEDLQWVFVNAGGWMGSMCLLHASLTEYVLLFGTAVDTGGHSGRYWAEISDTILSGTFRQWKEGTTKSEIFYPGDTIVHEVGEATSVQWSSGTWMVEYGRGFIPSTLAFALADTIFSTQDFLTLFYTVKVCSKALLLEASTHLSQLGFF

[2] = test system: xls1R-C179 or xls1R-C203; assay: mPEG-Mal-5K modification of xlσ1R cysteine mutants with added PRE084 (SDS-PAGE); format: biochemical, Xenopus laevis; settings: 1 mM PRE084 added to dialyzed protein sample before mPEG-Mal-5K treatment
Procedure: Modification of wild-type and cysteine mutants of xlσ1R was performed with a bulky thiol-modifying reagent, methoxypolyethylene glycol maleimide 5000 (mPEG-Mal-5K)[33]. Briefly, the SEC-purified xlσ1R protein in the absence of β-mercaptoethanol were incubated with 1 mM mPEG-Mal-5K at room temperature for 1 h, and the modification reaction was stopped by addition of β-mercaptoethanol to a final concentration of 10 mM before another SEC purification to remove any free mPEG-Mal-5K. For the entrance blocking experiment, the modified xlσ1R-C179 or xlσ1R-C203 proteins were subjected to ITC or SDS-PAGE analysis. For the assessment of disulfide formation in xlσ1R-C179/C203, the modified sample was analyzed by SDS-PAGE. To reduce background modification and facilitate gel analysis, the only native cysteine (Cys91) was mutated to serine in all samples for the disulfide analysis. […]
would affect the modification efficiency (Response Fig. 1). However, extensive dialysis of the […]
1 to lane 5 for C179, and lane 3 to la ne 7 f o r C2 03). […]
modification efficiency (compare lane 1 to lane 2 for C179, and lane 3 to lane 4 for C203).
Therefore, it seems less likely that the ligand binding hindered mPEG -Ma l-5K modification. […]
before mPEG-Ma l-5K treatment were indicated above the gel. Protein samples were analyzed by SDS-PAGE and Coomassie blue staining. […]

[3] = target: T2, wild-type xlσ1R (Xenopus laevis, UniProt Q6DCU6); assay: ITC binding of PRE084 to wild-type xlσ1R before/after mPEG-Mal-5K modification; settings: for WT stoichiometry, After modification: mPEG-Mal-5K
T2 construct: The gene encoding the full-length wild-type σ1R from Xenopus laevis; hemagglutinin signal peptide (N); decahistidine (His10) (N); TEV protease recognition site (N); made in house; host or cells: Pichia pastoris GS115
T2 sequence (Q6DCU6 1-221): T1 sequence (Q6DCU6 1-221 Y203C) with C203Y

[4] = target: T3, xlσ1R-C179/C203 (Xenopus laevis, UniProt Q6DCU6, L179C/Y203C); assay: ITC binding of PRE084 to xlσ1R-C179/C203 (disulfide oxidation / re-reduction)
T3 construct: The gene encoding the full-length wild-type σ1R from Xenopus laevis; hemagglutinin signal peptide (N); decahistidine (His10) (N); TEV protease recognition site (N); made in house; host or cells: Pichia pastoris GS115
T3 sequence (Q6DCU6 1-221 L179C/Y203C): T1 sequence (Q6DCU6 1-221 Y203C) with L179C

[5] = target: T4, xlσ1R-C179 (Xenopus laevis, UniProt Q6DCU6, L179C); assay: ITC binding of PRE084 to xlσ1R-C179 before/after mPEG-Mal-5K modification
T4 construct: The gene encoding the full-length wild-type σ1R from Xenopus laevis; hemagglutinin signal peptide (N); decahistidine (His10) (N); TEV protease recognition site (N); made in house; host or cells: Pichia pastoris GS115
T4 sequence (Q6DCU6 1-221 L179C): T1 sequence (Q6DCU6 1-221 Y203C) with L179C, C203Y

[6] = target: T5, wild-type xls1R (Xenopus laevis, UniProt Q6DCU6); assay: Resistance of wild-type xlσ1R to chymotrypsin with added PRE084 (SDS-PAGE); format: biochemical; settings: 1 mM PRE084 added to dialyzed protein before chymotrypsin treatment
T5 construct: The gene encoding the full-length wild-type σ1R from Xenopus laevis; hemagglutinin signal peptide (N); decahistidine (His10) (N); TEV protease recognition site (N); made in house; host or cells: Pichia pastoris GS115
T5 sequence (Q6DCU6 1-221): T1 sequence (Q6DCU6 1-221 Y203C) with C203Y

[7] = Dissolution of DIM-3C for crystal soaking; format: physicochemical; settings: for soaking xlσ1R crystals
Source text: Finally, it is worth mentioning another structural effort that we attempted to capture an open conformation of σ1R by soaking a ligand of extended length into the xlσ1R crystals. We anticipated that the ligand would extend through the ligand entrance and cause the receptor to adopt an open state. Such an extended ligand, N^1,N^3-bis(1-((R)-3-([1,1′-biphenyl]-4-yl)butyl)-piperidin-4-yl)malonamide (DIM-3C)[21], was kindly provided by Dr. Collina and Dr. Rossino for soaking the xlσ1R crystals. […] The density was readily and best modeled with an S1RA molecule. Its morpholine ring sits between α4 and α5 and is surrounded by residues 179, 203, and Leu97, whereas the rest of the ligand remains outside of the receptor, possibly representing an entering (or exiting) pose for the ligand. Meanwhile, due to the relatively low resolution (3.80 Å) of the xlσ1RC179/C203-S1RA structure, this extra density needs to be interpreted with caution, and we used it only for supplementary discussion.

[8] = ITC, Mean of repeats (source data Fig. 4e)
[9] = equilibrium dissociation constant (Kd)
[10] = ITC, individual repeats (source data Fig. 4e)

For `O=C(OCCN1CCOCC1)C1(c2ccccc2)CCCCC1` [PRE084, [2-(morpholin-4-yl)ethyl] 1-phenylcyclohexane-1-carboxylate], the pKd ([1]; C203 Kd, After modification) was 5.82 and 5.76 and 5.79, the pKd ([1]; C203 Kd, Before modification) was 6.01 and 5.99 and the “C203 stoichiometry, Before modification” value [1, 8] was 0.8717. For the same molecule, the pKd [1, 9] was 5.79 and 6.00, the “effect of added ligand on mPEG-Mal-5K modification efficiency” value [2] was “no appreciable effect” and the “change of affinity (Kd) after mPEG-Mal-5K treatment” value [3] was “changed little”. The “WT stoichiometry, Before modification” value [3, 8] was 0.8695, the “WT stoichiometry, Before modification” value [3, 10] was 0.883 and 0.874 and 0.993 and 0.728 and the “WT stoichiometry, After modification” value [3, 8] was 0.9143. For the same molecule, the “WT stoichiometry, After modification” value [3, 10] was 0.933 and 0.896 and 0.874 and 1.040 and 0.883 and 0.860, the “change of stoichiometry (number of available binding sites per protomer) after mPEG-Mal-5K treatment” value ([3]; ITC, modification of native Cys91) was “changed little” and the Kd ([3]; WT Kd, After modification) was 1.22 µM and 1.29 µM and 1.23 µM and 1.08 µM (2×) and 1.12 µM. For the same molecule, the pKd ([3]; WT Kd, Before modification) was 5.95 and 5.92 and 6.06 and 5.96, the pKd ([4]; C179/C203 Kd, After oxidation) was 5.11 and 5.29 and 5.14 and the pKd ([4]; C179/C203 Kd, Before oxidation) was 6.02 and 6.15 and 6.42 and 6.29 and 6.07. For the same molecule, the pKd ([4]; C179/C203 Kd, Re-reduction) was 5.75 and 5.86 and 5.84 and 5.80, the pKd [4, 9] was 6.17 and 5.17 and 5.81 and the pKd ([5]; C179 Kd, After modification) was 5.72 and 5.70 and 5.71. For the same molecule, the pKd ([5]; C179 Kd, Before modification) was 6.01 and 6.00 and 5.96 and 5.98, the pKd [5, 9] was 5.99 and 5.71 and the “effect of added ligand on chymotrypsin digestion” value [6] was “no appreciable effect”.
In the case of `C[C@H](CCN1CCC(NC(=O)CC(=O)NC2CCN(CC[C@@H](C)c3ccc(-c4ccccc4)cc3)CC2)CC1)c1ccc(-c2ccccc2)cc1` [DIM-3C, N^1,N^3-bis(1-((R)-3-([1,1′-biphenyl]-4-yl)butyl)-piperidin-4-yl)malonamide], the solubility [7] was “could only be dissolved with organic solvents such as methanol and dimethyl sulfoxide”.
